{"source": "patent US12721870B2", "about": "(priority 2021, dated 2026)", "key": {"[1]": {"system": "cyclophosphamide (CPP)-induced animal model", "test": "Thymus and spleen weight in CPP-induced animal model", "type": "in vivo", "conditions": "mice", "description": "To confirm the immunity-enhancing efficacy of the V5 strain in a cyclophosphamide (CPP)-induced animal model, tests were performed for each concentration of the V5 strain. Cyclophosphamide (CPP) is an anticancer drug widely used for all types of cancers, sarcomas, leukemia, and malignant lymphoma, and is a non-specific immunosuppressant. […] When CPP suppresses immunity, the weight of the thymus, an immune tissue, and the number of thymocytes are reduced, and the spleen weight is increased as a result of a defense mechanism against immunosuppression.\nTo confirm the effect of the V5 strain on the weight of the thymus and spleen of a CPP-induced animal model, the weight of the thymus and spleen of the animal model was measured."}, "splenocytes": {"system": "splenocytes", "test": "Cell viability of splenocytes from CPP-induced animal model (WST)", "type": "in vivo", "conditions": "mice, 150 mg/kg CPP only, splenocytes incubated 48 hours", "description": "To measure the cell viability of splenocytes, a collection of cells involved in various cellular immunity, splenocytes from each mouse were seeded in a 96-well plate at 1×10^4 cells/well and then incubated in a 37° C. CO2 incubator for 48 hours. Next, the splenocytes were treated with WST to measure cell viability."}, "[2]": {"system": "natural killer cells (NK cells)", "test": "Cytotoxicity of NK cells from CPP-induced animal model (LDH, YAC-1 cells)", "conditions": "mice, 150 mg/kg CPP only, YAC-1 cells: splenocytes 1:50, four hours", "quoted_text": "The test was performed in the following four groups with seven mice per group: a normal control (NC), a group treated with 150 mg/kg of CPP, a group treated with 1×10^9 CFU/mouse (10^9 CFU) ATG-V5 (V5 strain), and a group treated with 1×10^10 CFU/mouse (V5 10^10 CFU) ATG-V5 (V5 strain).\nTo measure the cytotoxicity of natural killer cells (NK cells), the spleen was isolated from a CPP-induced animal model, and then the tissue was ground to obtain splenocytes. Next, the splenocytes were mixed with YAC-1 cells in a ratio of the YAC-1 cells: the splenocytes of 1:50 and then incubated in a CO2 incubator at 37° C. for four hours. The amount of LDH was measured using an LDH-cell cytotoxicity assay kit."}, "[3]": {"system": "Th1, Th2, Th17, and Treg cells", "test": "T cell subset marker mRNA in splenocytes of CPP-induced animal model (qPCR)", "type": "in vivo", "conditions": "mice, 150 mg/kg CPP only", "description": "In addition, RNA was isolated from the splenocytes at 2×10^6 cells/sample using a TRIZOL® reagent (Thermo, US), and cDNA was synthesized using ACCUPOWER® RT PreMix & Master Mix (Bioneer, KO). To confirm changes in differentiation of Th1, Th2, Th17, and Treg cells, T cell subsets, using the synthesized cDNA and ACCUPOWER® GreenStar™ qPCR PreMix (Bioneer, KO), expression levels of TBX21, GATA3, RORγt, IL-17A, Foxp3, and CTLA-4 mRNA in these cells were measured."}, "[4]": {"system": "cyclophosphamide (CPP)-induced animal model", "test": "Antibodies in blood of CPP-induced animal model (ELISA)", "type": "in vivo", "conditions": "mice, 150 mg/kg CPP only, serum ELISA", "description": "(§1) The blood of a CPP-induced animal model was reacted at room temperature for two hours and then centrifuged at 4000 rpm for 10 minutes to isolate serum. The secretion amounts of IgG, IgA, and IgM were measured from the isolated serum using an ELISA kit (Thermo, US)."}, "[5]": {"system": "cyclophosphamide (CPP)-induced animal model", "test": "Cytokines in blood of CPP-induced animal model (ELISA)", "type": "in vivo", "conditions": "mice, 150 mg/kg CPP only, serum ELISA; tendency", "description": "as §1\nIn addition, enzyme-linked immunosorbent assay (ELISA) for IL-6, IL-2, IL-10, and IL-4 was performed using the serum."}}, "note": "“And” between values parts separate entries of the source, which are not always exact repeats. Equal values may be shown once."}
{"smiles": "O=P1(N(CCCl)CCCl)NCCCO1", "note": "(stereo not drawn) [CPP, cyclophosphamide]", "values": [{"measurement": "Thymus weight", "setting": "[1]; group treated with 150 mg/kg of CPP only (normal control 0.061 g), 150 mg/kg", "result": "0.03 g and 0.031 g"}, {"measurement": "Spleen weight", "setting": "[1]; group treated with 150 mg/kg of CPP only (normal control 0.105 g)", "result": 0.170, "unit": "g"}, {"measurement": "Cell viability of splenocytes", "setting": "splenocytes", "result": 99.98, "unit": "%"}, {"measurement": "Cytotoxicity of NK cells", "setting": "[2]", "result": 144, "unit": "%"}, {"measurement": "Overall number of T cell subsets (mRNA in splenocytes)", "setting": "[3]", "result": "suppressing"}, {"measurement": "Secretion amount of IgA in the blood", "setting": "[4]", "result": "reduced"}, {"measurement": "Secretion amount of IgG in the blood", "setting": "[4]", "result": "reduced"}, {"measurement": "Secretion amount of IgM in the blood", "setting": "[4]", "result": "failed to cause changes"}, {"measurement": "Cytokines in the blood (IL-6, IL-2, IL-10, IL-4)", "setting": "[5]", "result": "reduced"}]}
